Test results as given in ChEMBL document CHEMBL1782021, “Synthesis of 2-aziridinyl phosphonates by modified Gabriel-Cromwell reaction and their antibacterial activities” (2011).

What was measured:
Type in all cases: functional
Brevundimonas = experiment: Antibacterial activity against Brevundimonas sp. isolate Fs30 at 10 ug/disk after 24 hrs by disc diffusion assay; conditions: isolate Fs30, 24 h, read-out: DIZ
Kocuria = experiment: Antibacterial activity against Kocuria sp. isolate Fs24 at 10 ug/disk after 24 hrs by disc diffusion assay; conditions: isolate Fs24, 24 h, read-out: DIZ
Bacillus subtilis = experiment: Antibacterial activity against Bacillus subtilis assessed as diameter of zone of inhibition at 10 ug/disk after 24 hrs by disc diffusion assay; conditions: read-out: DIZ
Escherichia coli = experiment: Antibacterial activity against Escherichia coli DH5[alpha] at 10 ug/disk after 24 hrs by disc diffusion assay; conditions: read-out: DIZ
Gordonia sp. = experiment: Antibacterial activity against Gordonia sp. isolate Fs48 at 10 ug/disk after 24 hrs by disc diffusion assay; conditions: Gordonia sp. (in: high G+C Gram-positive bacteria), isolate Fs48, 24 h; read-out: DIZ

SMILES: CC1(C)S[C@@H]2[C@H](NC(=O)[C@H](N)c3ccccc3)C(=O)N2[C@H]1C(=O)O [AMPICILLIN]
- zone of inhibition at 10 µg/disc (Brevundimonas): 10.7 mm
- zone of inhibition at 10 µg/disc (Kocuria): 47.7 mm
- zone of inhibition at 10 µg/disc (Bacillus subtilis): 17.3 mm
- zone of inhibition at 10 µg/disc (Escherichia coli): 16.7 mm

SMILES: CN[C@@H]1[C@H](O[C@H]2[C@H](O[C@H]3[C@H](O)[C@@H](O)[C@H](N=C(N)N)[C@@H](O)[C@@H]3N=C(N)N)O[C@@H](C)[C@]2(O)C=O)O[C@@H](CO)[C@H](O)[C@H]1O [STREPTOMYCIN]
- zone of inhibition at 10 µg/disc (Brevundimonas): 29.3 mm
- zone of inhibition at 10 µg/disc (Kocuria): 26 mm
- zone of inhibition at 10 µg/disc (Bacillus subtilis): 14 mm
- zone of inhibition at 10 µg/disc (Escherichia coli): 19.7 mm
- zone of inhibition at 10 µg/disc (Gordonia sp.): 29 mm
